Measured values reported in patent US10080758B2, “Tosylate salt of N-[3-[(4aR,7aS)-2-amino-6-(5-fluoropyrimidin-2-yl)-4,4a,5,7-tetrahydropyrrolo[3,4-d][1,3]thiazin-7a-yl]-4-fluoro-phenyl]-5-methoxy-pyrazine-2-carboxamide” (Eli Lilly and Company, priority 2015, dated 2018).
Values belong to the molecule of their own block, whether it stands above or below them.

Experiments:
[1] = Solid state physical stability versus relative humidity; format: physicochemical; details: room temperature
Description: Such physical instability is undesirable, particularly for a pharmaceutical drug substance or drug product, both of which are subject to regulatory controls regarding the solid state forms. […] As such, the tosylate salt of N-{3-[(4aR,7aS)-2-amino-6-(5-fluoropyrimidin-2-yl)-4a,5,6,7-tetrahydropyrrolo[3,4-d][1,3]thiazin-7a(4H)-yl]-4-fluoro-phenyl}-5-methoxypyrazine-2-carboxamide essentially avoids the humidity dependent phase transformations associated with the corresponding crystalline free base forms. […] The increased likelihood of the free base to undergo phase transitions during long term storage can lead to variability in properties, such as solubility or dissolution rate, which may compromise the performance of the drug product. It also poses the additional risk of collapse of the crystal structure(s) to an amorphous form or accumulation of defects and disorder, which could lead to chemical instability and reduced shelf-life of the drug product.

Abeta 1-x peptide = experiment: In vivo inhibition of beta-secretase (brain Abeta 1-x lowering); parameters: species or system mice; details: for Abeta 1-x peptide levels reduced, brain cortex / Abeta 1-x peptide levels reduced, brain hippocampus: three hours after administration, compared to vehicle-treated mice
Description: Several animal models, including mouse, guinea pig, dog, and monkey, may be used to screen for inhibition of beta-secretase activity in vivo following compound treatment. Animals used in this invention can be wild type, transgenic, or gene knockout animals. For example, the PDAPP mouse model, prepared as described in Games et al., Nature 373, 523-527 (1995), and other non-transgenic or gene knockout animals are useful to analyze in vivo inhibition of Abeta and sAPPbeta production in the presence of inhibitory compounds. Generally, 2 to 12 month old PDAPP mice, gene knockout mice or non-transgenic animals are administered compound formulated in vehicles, such as corn oil, cyclodextran, phosphate buffers, […]®, or other suitable vehicles. One to twenty-four hours following the administration of compound, animals are sacrificed, and brains as well as cerebrospinal fluid and plasma are removed for analysis of Abetas, C99, and sAPP fragments. (See May, et al., Journal of Neuroscience, 31, 16507-16516 (2011)). For standard in vivo pharmacology studies, animals are dosed with various concentrations of compound and compared to a vehicle-treated control group dosed at the same time. For some time course studies, brain tissue, plasma, or cerebrospinal fluid is obtained from selected animals, beginning at time 0 to establish a baseline. Compound or appropriate vehicle is administered to other groups and sacrificed at various times after dosing. Brain tissue, plasma, or cerebrospinal fluid is obtained from selected animals and analyzed for the presence of APP cleavage products, including Abeta peptides, sAPPbeta, and other APP fragments, for example, by specific sandwich ELISA assays. At the end of the test period, animals are sacrificed and brain tissues, plasma, or cerebrospinal fluid are analyzed for the presence of Abeta peptides, C99, and sAPPbeta, as appropriate. Brain tissues of APP transgenic animals may also be analyzed for the amount of beta-amyloid plaques following compound treatment. “Abeta 1-x peptide” as used herein refers to the sum of Abeta species that begin with residue 1 and ending with a C-terminus greater than residue 28. This detects the majority of Abeta species and is often called “total Abeta”.

[2] = system: Abeta released by primary cortical neurons from PDAPP embryos; experiment: PDAPP primary neuronal assay (Abeta ELISA); format: cell-based; details: Mus musculus, Primary cortical neuron; 24 hours incubation; Abeta 1-42; Mean ± SEM; read-out: PDAPP Neuron A-beta (1-42) ELISA IC50
[3] = Solvent retained in the crystal; format: physicochemical

relative humidity at which the crystal form is present / stable [1]: greater than 15 % relative humidity
relative humidity at which the crystal form is present / stable ([1]; listed as crystalline form 2): above 15 % relative humidity
Compound: COc1cnc(C(=O)Nc2ccc(F)c([C@]34CN(c5ncc(F)cn5)C[C@@H]3CN=C(N)S4)c2)cn1.O [Crystalline Form 2, Crystalline Form 2 N-[3-[(4aR,7aS)-2-Amino-6-(5-fluoropyrimidin-2-yl)-4,4a,5,7-tetrahydropyrrolo[3,4-d][1,3]thiazin-7a-yl]-4-fluoro-phenyl]-5-methoxy-pyrazine-2-carboxamide (Hydrated)]

CNS penetration (Abeta 1-x peptide): demonstrate CNS penetration
Compound: COc1cnc(C(=O)Nc2ccc(F)c([C@]34CN(c5ncc(F)cn5)C[C@H]3CSC(N)=N4)c2)cn1 [N-[3-[(4aR,7aS)-2-amino-6-(5-fluoropyrimidin-2-yl)-4,4a,5,7-tetrahydropyrrolo[3,4-d][1,3]thiazin-7a-yl]-4-fluoro-phenyl]-5-methoxy-pyrazine-2-carboxamide]

amount of solvent retained in the crystal [3]: about 7.7%
Compound: COc1cnc(C(=O)Nc2ccc(F)c([C@]34CN(c5ncc(F)cn5)C[C@H]3CSC(N)=N4)c2)cn1.Cl [Preparation 46, N-[3-[(4aR,7aS)-2-Amino-6-(5-fluoropyrimidin-2-yl)-4,4a,5,7-tetrahydropyrrolo[3,4-d][1,3]thiazin-7a-yl]-4-fluoro-phenyl]-5-methoxy-pyrazine-2-carboxamide hydrochloride]
IC50 [2]: 0.228 nM
Abeta 1-x peptide levels reduced, brain cortex (Abeta 1-x peptide; 0.3 mg/kg oral dose): approximately 28%
Abeta 1-x peptide levels reduced, brain hippocampus (Abeta 1-x peptide; 0.3 mg/kg oral dose): approximately 31%
Abeta 1-x peptide levels reduced, brain cortex (Abeta 1-x peptide; 1 mg/kg oral dose): ~42%
Abeta 1-x peptide levels reduced, brain hippocampus (Abeta 1-x peptide; 1 mg/kg oral dose): ~39%
Abeta 1-x peptide levels reduced, brain cortex (Abeta 1-x peptide; 3 mg/kg oral dose): ~64%
Abeta 1-x peptide levels reduced, brain hippocampus (Abeta 1-x peptide; 3 mg/kg oral dose): ~61%
